From patent US7569724B2, “Carbamic acid compounds comprising an amide linkage as HDAC inhibitors” (Topotarget UK Limited, priority 2000, dated 2009)
Like-named read-outs stand apart in the source and are kept apart here.

Key:
[1] = test system: HDAC (HeLa cell extract); assay: Primary assay: deacetylase activity, HeLa cell extract as source of HDAC; assay type: biochemical, human; conditions: HeLa cell extract
Method in brief: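 Crude HeLa extract (freeze-thaw in 60 mM TrisCl pH 8.0, 450 mM NaCl, 30% glycerol) was incubated 1 h at 37° C with a [³H]acetyl-labelled histone H4 N-terminal peptide in 20 mM Tris pH 7.4, 10% glycerol.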

[2] = target: T1, human HDAC2 (Homo sapiens, UniProt Q92769); assay: Primary assay: deacetylase activity, recombinantly produced HDAC2; assay type: biochemical; conditions: for IC50: recombinant HDAC2, read-out: HDAC Inhibition (IC50 unless otherwise specified) HDAC2
T1 construct: Full length human HDAC2 was subcloned; Flag (C); His6 (from pAcHLT-A vector; purified on Ni-NTA) (N); made in house; host or cells: SF9 insect cells (baculovirus)
T1 sequence (Q92769 whole entry): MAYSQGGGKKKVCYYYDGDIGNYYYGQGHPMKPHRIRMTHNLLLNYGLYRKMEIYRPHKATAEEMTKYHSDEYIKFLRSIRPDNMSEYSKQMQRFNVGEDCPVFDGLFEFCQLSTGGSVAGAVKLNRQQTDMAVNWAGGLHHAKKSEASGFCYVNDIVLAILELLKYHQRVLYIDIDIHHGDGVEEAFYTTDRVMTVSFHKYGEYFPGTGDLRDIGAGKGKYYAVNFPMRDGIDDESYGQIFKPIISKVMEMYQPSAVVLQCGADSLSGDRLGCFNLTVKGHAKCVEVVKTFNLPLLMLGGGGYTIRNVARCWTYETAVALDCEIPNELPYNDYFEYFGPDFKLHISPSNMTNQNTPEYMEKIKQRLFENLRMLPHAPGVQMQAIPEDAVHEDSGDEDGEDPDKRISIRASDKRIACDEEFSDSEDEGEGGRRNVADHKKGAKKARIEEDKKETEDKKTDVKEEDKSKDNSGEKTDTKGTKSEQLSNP
Source text: Briefly, this assay relies on the release of radioactive acetate from a radioactively labelled histone fragment by the action of HDAC enzyme. Test compounds, which inhibit HDAC, reduce the yield of radioactive acetate. Signal (e.g., scintillation counts) measured in the presence and absence of a test compound provide an indication of that compound's ability to inhibit HDAC activity. Decreased activity indicates increased inhibition by the test compound.
The histone fragment was an N-terminal sequence from histone H4, and it was labelled with radioactively labelled acetyl groups using tritiated acetylcoenzyme A (coA) in conjunction with an enzyme which is the histone acetyltransferase domain of the transcriptional coactivator p300. […] The acetylated peptide was then separated from free acetyl coA by size exclusion chromatography on Sephadex G-15 (Sigma G-15-120), using distilled H2O as the mobile phase.
After purification of the radiolabelled histone fragment, it was incubated with a source of HDAC (e.g., an extract of HeLa cells (a rich source of HDAC), recombinantly produced HDAC1 or HDAC2) and any released acetate was extracted into an organic phase and quantitatively determined using scintillation counting. By including a test compound with the source of HDAC, that compound's ability to inhibit the HDAC was determined.
Amplification of recombinant viruses was performed according to the Pharmingen Instruction Manual.
For protein production, 2×10^7 cells were infected with the appropriate recombinant virus for 3 days. Cells were then harvested and spun at 3,000 rpm for 5 minutes. They were then washed twice in PBS and resuspended in 2 pellet volumes of lysis buffer (25 mM HEPES pH 7.9, 0.1 mM EDTA, 400 mM KCl, 10% glycerol, 0.1% NP-40, 1 mM AEBSF). Resuspended cells were frozen on dry ice and thawed at 37° C. 3 times and centrifuged for 10 minutes at 14,000 rpm. […] Incubation was carried out at 4° C. for 1 hour on a rotating wheel. The slurry was then centrifuged at 500 g for 5 minutes. Beads were washed twice in 1 ml of wash buffer (25 mM HEPES pH7.9, 0.1 mM EDTA, 150 mM KCl, 10% glycerol, 0.1% NP-40, 1 mM AEBSF). Protein was eluted 3 times in 300 μl elution buffer (25 mM HEPES pH 7.9, 0.1 mM EDTA, 250 mM KCl, 10% glycerol, 0.1% NP-40, 1 mM AEBSF) containing increasing concentrations of imidazole: 0.2 M, 0.5 M and 1 M. Each elution was performed for 5 minutes at room temperature. Eluted protein was kept in 50% glycerol at −70° C.
A source of HDAC (e.g., 2 μL of crude HeLa extract, 5 μL of HDAC1 or HDAC2; in elution buffer, as above) was incubated with 3 μL of radioactively labelled peptide along with appropriate dilutions of candidate compounds (1.5 μL) in a total volume of 150 μL of buffer (20 mM Tris pH 7.4, 10% glycerol). The reaction was carried out at 37° C. for one hour, after which the reaction was stopped by adding 20 μL of 1 M HCl/0.4 M sodium acetate. […] Radioactivity was measured using a Tri-Carb 2100TR Liquid Scintillation Analyzer (Packard).
Percent activity (% activity) for each test compound was calculated as: % activity={(S^C−B)/(S^o−B)}×100 wherein S^C denotes signal measured in the presence of enzyme and the compound being tested, S^o denotes signal measured in the presence of enzyme but in the absence of the compound being tested, and B denotes the background signal measured in the absence of both enzyme and compound being tested.

[3] = test system: HeLa cells; assay: Secondary assay: cell proliferation WST-1, HeLa; assay type: cell-based; conditions: Homo sapiens, 48 h, read-out: Cell Proliferation Inhibition WST-1 (IC50 unless otherwise specified) HeLa
Method in brief: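 Absorbance at 450 nm (reference 690 nm); % activity vs untreated after blank subtraction, IC50 fitted with top 100 and bottom 0.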

[4] = test system: K11 HPV E7 transformed human keratinocyte line; assay: Secondary assay: cell proliferation WST-1, K11; assay type: cell-based; conditions: Homo sapiens, Keratinocyte, 48 h, read-out: Cell Proliferation Inhibition WST-1 (IC50 unless otherwise specified) K11
Method: (§1) Compounds with HDAC inhibition activity, as determined using the primary assay, were subsequently evaluated using secondary cell-based assays. The following cell lines were used:
K11—HPV E7 transformed human keratinocyte line provided by Pidder Jansen-Duerr, Institut für Biomedizinische Alternsforschung, Innsbruck, Austria.
(§2) Cells were plated in 96-well plates at 3-10×10^3 cells/well in 100 μL of culture medium. The following day, different concentrations of candidate compounds were added and the cells incubated at 37° C. for 48 h. Subsequently, 10 μL/well of WST-1 reagent was added and the cells reincubated for 1 hour. After the incubation time, absorbance was measured.
(§3) WST-1 is a tetrazolium salt which is cleaved to formazan dye by cellular enzymes. An expansion in the number of viable cells results in an increase in the overall activity of mitochondrial dehydrogenases in the sample. This augmentation in the enzyme activity leads to an increase in the amount of formazan dye formed, which directly correlates to the number of metabolically active cells in the culture. The formazan dye produced is quantified by a scanning multiwell spectrophotometer by measuring the absorbance of the dye solution at 450 nm wavelength (reference wavelength 690 nm).
(§4) Percent activity (% activity) in reducing the number of viable cells was calculated for each test compound as: % activity={(S^C−B)/(S^o−B)}×100 wherein S^C denotes signal measured in the presence of the compound being tested, S^o denotes signal measured in the absence of the compound being tested, and B denotes the background signal measured in blank wells containing medium only.
(§5) IC50 values were calculated using the software package Prism 3.0 (GraphPad software Inc., San Diego, Calif.), setting top value at 100 and bottom value at 0.

[5] = test system: JURKAT human T-cell line; assay: Secondary assay: cell proliferation WST-1, Jurkat; assay type: cell-based; conditions: Homo sapiens, 48 h, read-out: Cell Proliferation Inhibition WST-1 (IC50 unless otherwise specified) Jurkat
Method: as §1
JURKAT—Human T-cell line (ATCC no. TIB-152).
as §2, §3, §4, §5

[6] = read-out: HDAC Inhibition (IC50 unless otherwise specified) HeLa

Row | SMILES | HDAC Inhibition HeLa, percent ([1]; @ 1 μM) | percent HDAC inhibition at the stated concentration ([1]; comparative tables, @ 1 μM) | HDAC Inhibition HDAC2, percent ([2]; recombinant HDAC2, @ 5 μM) | IC50 [2] | melting point | IC50 [1, 6] | IC50 [3] | IC50 [4] | IC50 [5] | IC50 ([1]; comparative tables, read-out: HeLa IC50) | HDAC Inhibition HeLa, percent ([1]; @ 500 nM) | HDAC Inhibition HeLa, percent ([1]; @ 100 nM)
1 | CN(C)c1ccc(C(=O)NCCC(=O)NO)c2ccccc12 [PX082530, 4-Dimethylamino-napthalene-1-carboxylic acid (2-hydroxycarbamoyl-ethyl)-amide] | 13% @ 1 μM | 13% @ 1 μM | 18% @ 5 μM |  |  |  |  |  |  |  |  | 
2 | O=C(CCCCCNC(=O)c1ccccc1)NO [PX083449, N-(5-Hydroxycarbamoyl-pentyl)-benzamide] |  |  |  | 0.688 µM | 102 to 104 °C |  |  |  |  |  |  | 
3 | O=C(/C=C/c1cccc(NC(=O)/C=C/c2ccc3c(c2)OCO3)c1)NO [PX117711, (E)-3-(1,3-Benzodioxol-5-yl)-N-{3-[(E)-3-(hydroxyamino)-3-oxo-1-propenyl]phenyl}-2-propenamide] |  |  |  |  | 128 °C | 0.44 µM | 9.8 µM | 7.9 µM | 0.92 µM |  |  | 
4 | O=C(/C=C/c1cccc2ccccc12)NCCCCCC(=O)NO [PX117441, N-(5-Hydroxycarbamoyl-pentyl)-3-naphthalen-1-yl-acrylamide] |  |  |  |  | 135 to 137 °C | 0.048 µM | 17 µM | 4.9 µM | 4.3 µM | 0.048 µM |  | 
5 | O=C(CCCCCCC(=O)NCCCc1ccccc1)NO [PX117420, Octanedioic acid hydroxyamide (3-phenyl-propyl)-amide] |  |  |  |  | 97 to 98 °C |  | 15 µM | 23.5 µM | 5.3 µM |  | 73% @ 500 nM | 
6 | O=C(CCCCCCC(=O)NC/C=C/c1ccccc1)NO [PX117416, Octanedioic acid hydroxyamide (3-phenyl-allyl)-amide] |  |  |  |  | 133 to 133.5 °C |  | 7.4 µM | 8.5 µM | 3.6 µM |  | 75% @ 500 nM | 
7 | O=C(CCCCCCC(=O)Nc1ccc(-c2ccccc2)cc1)NO [PX117720, Octanedioic acid biphenyl-4-ylamide hydroxamide] |  |  |  |  | 227 to 229 °C | 0.04 µM | 1.8 µM | 2.5 µM | 0.26 µM |  |  | 
8 | CC(/C=C/C(=O)Nc1cccc(/C=C/C(=O)NO)c1)=C\c1ccccc1 [PX117707, N-{3-[(E)-3-(Hydroxyamino)-3-oxo-1-propenyl]phenyl}-4-methyl-5-phenyl-(2E,4E)-pentadienamide] |  |  |  |  | 145 to 148 °C | 0.235 µM | 43 µM | 7.7 µM | 1.5 µM |  |  | 
9 | Cc1ccc(C(CC(=O)NCCCCCC(=O)NO)NC(=O)OCc2ccccc2)cc1 (stereo not shown) [PX117729, [2-(5-Hydroxycarbamoyl-pentylcarbamoyl)-1-p-tolyl-ethyl]-carbamic acid benzyl ester] |  |  |  |  | 146 to 148 °C |  | 33 µM | 23 µM | 2.8 µM |  |  | 13% @ 100 nM
10 | CN(C)c1ccc(/C=C/C=C/C(=O)NCCCC(=O)NO)cc1 [PX105669] |  |  |  | 28 µM |  |  |  |  |  |  |  | 
11 | O=C(CCCCCCCNC(=O)c1ccc2ccccc2c1)NO [PX106515, Naphthalene-2-carboxylic acid (7-hydroxycarbamoyl-heptyl)-amide] |  |  |  |  | 138 to 139 °C | 0.0277 µM | 3.6 µM | 1.8 µM | 2.7 µM |  |  | 
12 | CC(=C\c1ccccc1)/C=C(\C)C(=O)NCCCCCC(=O)NO [PX117738, (2E)(4E)-2,4-Dimethyl-5-phenylpenta-2,4-dienoic acid (5-hydroxycarbamoyl-pentyl)amide] |  |  |  |  | 120 to 122 °C | 0.131 µM | 24 µM | 3.2 µM | 1.7 µM |  |  | 
13 | O=C(CCCCCNC(=O)[C@H](Cc1c[nH]c2ccccc12)NC(=O)CCCc1c[nH]c2ccccc12)NO [PX117767, N-Hydroxy-6-[((2S)-3-(1H-indol-3-yl)-2-{[4-(1H-indol-3-yl)butanoyl]amino}propanoyl)-amino]hexanamide] |  |  |  |  | 94 to 96 °C | 0.09 µM | 15 µM | 6.2 µM | 3 µM |  |  | 
14 | O=C(/C=C/c1cccc(OC(F)(F)F)c1)NCCCCCC(=O)NO [PX117718, N-(5-Hydroxycarbamoyl-pentyl)-3-(3-trifluoromethoxy-phenyl)-acrylamide] |  |  |  |  | 109 to 111 °C | 0.067 µM | 39 µM | 3.7 µM | 4.4 µM |  |  | 
15 | O=C(CCCCCCC(=O)NCC(O)c1ccccc1)NO (stereo not shown) [PX116226, Octanedioic acid hydroxyamide (2-hydroxy-2-phenyl-ethyl)-amide] |  |  |  |  | 100 to 102 °C | 0.562 µM | 4.1 µM | 5.1 µM | 3.2 µM |  |  | 
